“And” between values parts separate entries of the source, which are not always exact repeats. Identical values can stand only once.
Biological target: T1, human TAS2R14 (Homo sapiens, UniProt Q9NYV8)
T1 construct: expressed in transfected cells; host or cells: HEK293T-Gα16gust44
T1 sequence (Q9NYV8 1-317): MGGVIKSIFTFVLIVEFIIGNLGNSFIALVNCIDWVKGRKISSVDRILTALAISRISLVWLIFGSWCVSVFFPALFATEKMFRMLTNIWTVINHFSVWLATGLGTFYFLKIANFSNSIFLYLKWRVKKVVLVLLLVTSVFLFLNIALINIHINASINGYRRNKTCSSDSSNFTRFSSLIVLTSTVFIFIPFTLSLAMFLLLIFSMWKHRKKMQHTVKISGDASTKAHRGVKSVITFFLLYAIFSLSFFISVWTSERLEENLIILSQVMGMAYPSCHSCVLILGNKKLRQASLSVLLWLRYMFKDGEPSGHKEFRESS
Test: Calcium imaging assay (FLIPR), HEK293T-Gα16gust44 cells transfected with human TAS2R14
Format: cell-based
Details: for RLU: TAS2R14 trace
Method in brief: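 Bile acids from DMSO stocks are applied to dye-loaded cells one day after transient receptor transfection, and calcium-dependent fluorescence is recorded. Maximum signal is standardized to basal and normalized to buffer-only wells, with empty-vector signal subtracted.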

Which results are given for C[C@H](CCC(=O)O)[C@H]1CC[C@H]2[C@@H]3[C@H](O)C[C@@H]4C[C@H](O)CC[C@]4(C)[C@H]3C[C@H](O)[C@]12C [Cholic Acid, cholic acid]?
Efficacy = maximal amplitude (ΔF/F) (TAS2R14, bile acids, mean): 0.2451; Efficacy (maximal amplitude ΔF/F), individual data points (TAS2R14, bile acids, single replicates, listed as CA): 0.2582 and 0.2878 and 0.1894; RLU (Time (s) 0): 0 RLU; RLU (Time (s) 2 (Taurocholic Acid 2.016)): 8.733 RLU; RLU (Time (s) 4 (Taurocholic Acid 4.016)): -17.1002 RLU; RLU (Time (s) 6 (Taurocholic Acid 6.016)): -14.5682 RLU; RLU (Time (s) 8 (Taurocholic Acid 8.016)): -36.4848 RLU; RLU (Time (s) 12 (Taurocholic Acid 12.016)): -26.3442 RLU; RLU (Time (s) 14 (Taurocholic Acid 14.016)): -33.528 RLU; RLU (Time (s) 16 (Taurocholic Acid 16.016)): -31.0627 RLU; RLU (Time (s) 18 (Taurocholic Acid 18.016)): -30.2662 RLU; RLU (Time (s) 18.797 (Chenodeoxycholic Acid 18.765)): -22.7559 RLU; RLU (Time (s) 20.797 (Chenodeoxycholic Acid 20.781)): -44.5987 RLU; RLU (Time (s) 22.797 (Chenodeoxycholic Acid 22.781)): 9.863 RLU; RLU (Time (s) 24.797 (Chenodeoxycholic Acid 24.781)): -6.39 RLU; RLU (Time (s) 26.797 (Chenodeoxycholic Acid 26.781)): 16.5716 RLU; RLU (Time (s) 28.797 (Chenodeoxycholic Acid 28.781)): 41.6203 RLU; RLU (Time (s) 30.797 (Chenodeoxycholic Acid 30.781)): 60.9467 RLU; RLU (Time (s) 32.797 (Chenodeoxycholic Acid 32.781)): 99 RLU; RLU (Time (s) 34.797 (Chenodeoxycholic Acid 34.781)): 154.774 RLU; RLU (Time (s) 36.797 (Chenodeoxycholic Acid 36.781)): 189.099 RLU; RLU (Time (s) 38.797 (Chenodeoxycholic Acid 38.781)): 207.548 RLU; RLU (Time (s) 40.797 (Chenodeoxycholic Acid 40.781)): 286.95 RLU; RLU (Time (s) 42.797 (Chenodeoxycholic Acid 42.781)): 332.949 RLU; RLU (Time (s) 44.797 (Chenodeoxycholic Acid 44.781)): 381.413 RLU; RLU (Time (s) 46.797 (Chenodeoxycholic Acid 46.781)): 432.303 RLU; RLU (Time (s) 48.797 (Chenodeoxycholic Acid 48.781)): 481.551 RLU; RLU (Time (s) 50.797 (Chenodeoxycholic Acid 50.781)): 522.709 RLU; RLU (Time (s) 52.797 (Chenodeoxycholic Acid 52.781)): 573.985 RLU; RLU (Time (s) 54.797 (Chenodeoxycholic Acid 54.781)): 600.804 RLU; RLU (Time (s) 56.797 (Chenodeoxycholic Acid 56.781)): 603.138 RLU; RLU (Time (s) 58.797 (Chenodeoxycholic Acid 58.781)): 677.301 RLU; RLU (Time (s) 60.797 (Chenodeoxycholic Acid 60.781)): 689.232 RLU; RLU (Time (s) 62.797 (Chenodeoxycholic Acid 62.781)): 740.761 RLU; RLU (Time (s) 64.797 (Chenodeoxycholic Acid 64.781)): 760.673 RLU; RLU (Time (s) 66.797 (Chenodeoxycholic Acid 66.781)): 793.47 RLU; RLU (Time (s) 68.797 (Chenodeoxycholic Acid 68.781)): 795.682 RLU; RLU (Time (s) 70.797 (Chenodeoxycholic Acid 70.781)): 846.508 RLU; RLU (Time (s) 72.797 (Chenodeoxycholic Acid 72.781)): 873.655 RLU; RLU (Time (s) 74.797 (Chenodeoxycholic Acid 74.781)): 945.307 RLU; RLU (Time (s) 76.797 (Chenodeoxycholic Acid 76.781)): 951.601 RLU; RLU (Time (s) 78.797 (Chenodeoxycholic Acid 78.781)): 969.484 RLU; RLU (Time (s) 80.797 (Chenodeoxycholic Acid 80.781)): 1026.08 RLU; RLU (Time (s) 82.797 (Chenodeoxycholic Acid 82.781)): 1051.68 RLU; RLU (Time (s) 84.797 (Chenodeoxycholic Acid 84.781)): 1028.13 RLU; RLU (Time (s) 86.797 (Chenodeoxycholic Acid 86.781)): 1075.38 RLU; RLU (Time (s) 88.797 (Chenodeoxycholic Acid 88.781)): 1071.24 RLU; RLU (Time (s) 90.797 (Chenodeoxycholic Acid 90.781)): 1092.31 RLU; RLU (Time (s) 92.797 (Chenodeoxycholic Acid 92.781)): 1143.7 RLU; RLU (Time (s) 94.797 (Chenodeoxycholic Acid 94.781)): 1154.9 RLU; RLU (Time (s) 96.797 (Chenodeoxycholic Acid 96.781)): 1163.63 RLU; RLU (Time (s) 98.797 (Chenodeoxycholic Acid 98.781)): 1184.89 RLU; RLU (Time (s) 100.797 (Chenodeoxycholic Acid 100.781)): 1211.25 RLU; RLU (Time (s) 102.797 (Chenodeoxycholic Acid 102.781)): 1207.36 RLU; RLU (Time (s) 104.797 (Chenodeoxycholic Acid 104.781)): 1232.88 RLU; RLU (Time (s) 106.797 (Chenodeoxycholic Acid 106.781)): 1256.04 RLU; RLU (Time (s) 108.797 (Chenodeoxycholic Acid 108.781)): 1236.19 RLU; RLU (Time (s) 110.797 (Chenodeoxycholic Acid 110.781)): 1242.72 RLU; RLU (Time (s) 112.797 (Chenodeoxycholic Acid 112.781)): 1266.26 RLU; RLU (Time (s) 114.797 (Chenodeoxycholic Acid 114.781)): 1269.15 RLU; RLU (Time (s) 116.797 (Chenodeoxycholic Acid 116.781)): 1265.61 RLU; RLU (Time (s) 118.797 (Chenodeoxycholic Acid 118.781)): 1260.33 RLU; RLU (Time (s) 120.797 (Chenodeoxycholic Acid 120.781)): 1305.24 RLU; RLU (Time (s) 122.797 (Chenodeoxycholic Acid 122.781)): 1269.8 RLU; RLU (Time (s) 124.797 (Chenodeoxycholic Acid 124.781)): 1271.64 RLU; RLU (Time (s) 126.797 (Chenodeoxycholic Acid 126.781)): 1263.68 RLU; RLU (Time (s) 128.797 (Chenodeoxycholic Acid 128.781)): 1291.8 RLU; RLU (Time (s) 130.797 (Chenodeoxycholic Acid 130.781)): 1262.68 RLU; RLU (Time (s) 132.797 (Chenodeoxycholic Acid 132.781)): 1269.55 RLU; RLU (Time (s) 134.797 (Chenodeoxycholic Acid 134.781)): 1262.84 RLU; RLU (Time (s) 136.797 (Chenodeoxycholic Acid 136.781)): 1277.95 RLU; RLU (Time (s) 137.562 (Taurocholic Acid 137.563, Chenodeoxycholic Acid 137.546)): 1261.13 RLU; RLU (Time (s) 143.578 (Taurocholic Acid 143.563, Chenodeoxycholic Acid 143.546)): 1235.79 RLU; RLU (Time (s) 149.578 (Taurocholic Acid 149.563, Chenodeoxycholic Acid 149.546)): 1235.83 RLU; RLU (Time (s) 155.578 (Taurocholic Acid 155.563, Chenodeoxycholic Acid 155.546)): 1156.37 RLU; RLU (Time (s) 161.578 (Taurocholic Acid 161.563, Chenodeoxycholic Acid 161.546)): 1154.38 RLU; RLU (Time (s) 167.578 (Taurocholic Acid 167.563, Chenodeoxycholic Acid 167.546)): 1122.87 RLU; RLU (Time (s) 173.578 (Taurocholic Acid 173.563, Chenodeoxycholic Acid 173.546)): 1009.37 RLU; RLU (Time (s) 179.578 (Taurocholic Acid 179.563, Chenodeoxycholic Acid 179.546)): 994.85 RLU; RLU (Time (s) 191.578 (Taurocholic Acid 191.563, Chenodeoxycholic Acid 191.546)): 855.583 RLU; RLU (Time (s) 197.578 (Taurocholic Acid 197.563, Chenodeoxycholic Acid 197.546)): 818.047 RLU; RLU (Time (s) 209.578 (Taurocholic Acid 209.563, Chenodeoxycholic Acid 209.546)): 723.754 RLU; RLU (Time (s) 221.578 (Taurocholic Acid 221.563, Chenodeoxycholic Acid 221.546)): 629.159 RLU; RLU (Time (s) 233.578 (Taurocholic Acid 233.563, Chenodeoxycholic Acid 233.546)): 528.668 RLU; RLU (Time (s) 239.578 (Taurocholic Acid 239.563, Chenodeoxycholic Acid 239.546)): 477.512 RLU; RLU (Time (s) 245.578 (Taurocholic Acid 245.563, Chenodeoxycholic Acid 245.546)): 438.571 RLU; RLU (Time (s) 293.578 (Taurocholic Acid 293.563, Chenodeoxycholic Acid 293.546)): 221.346 RLU; RLU (Time (s) 299.578 (Taurocholic Acid 299.563, Chenodeoxycholic Acid 299.546)): 202.892 RLU; RLU (Time (s) 305.578 (Taurocholic Acid 305.563, Chenodeoxycholic Acid 305.546)): 181.254 RLU; RLU (Time (s) 311.578 (Taurocholic Acid 311.563, Chenodeoxycholic Acid 311.546)): 152.075 RLU; RLU (Time (s) 317.578 (Taurocholic Acid 317.563, Chenodeoxycholic Acid 317.546)): 165.461 RLU; RLU (Time (s) 323.578 (Taurocholic Acid 323.563, Chenodeoxycholic Acid 323.546)): 152.075 RLU; RLU (Time (s) 329.578 (Taurocholic Acid 329.563, Chenodeoxycholic Acid 329.546)): 111.269 RLU; RLU (Time (s) 335.578 (Taurocholic Acid 335.563, Chenodeoxycholic Acid 335.546)): 88.8846 RLU; RLU (Time (s) 341.578 (Taurocholic Acid 341.563, Chenodeoxycholic Acid 341.546)): 75.1088 RLU; RLU (Time (s) 347.578 (Taurocholic Acid 347.563, Chenodeoxycholic Acid 347.546)): 60.0955 RLU; RLU (Time (s) 353.578 (Taurocholic Acid 353.563, Chenodeoxycholic Acid 353.546)): 37.7794 RLU; RLU (Time (s) 359.578 (Taurocholic Acid 359.563, Chenodeoxycholic Acid 359.546)): 47.6877 RLU; Activation threshold concentration TAS2R14 (lowest concentration with significantly increased fluorescence vs empty vector (p < 0.01)): 300 µM

— paper PMC10247784, “Physiological activation of human and mouse bitter taste receptors by bile acids” (Communications Biology, 2023)
